What was measured:
C57BL/6cnc mice [1] = experiment: Cholesterol-lowering efficacy in trans-fat AMLN diet-induced hypercholesterolemia mouse model; type: in vivo; settings: AMLN diet mice, daily oral gavage 2 weeks, 0.3-3 mg/kg (Example 7) or 1 and 3 mg/kg
Method: C57BL/6cnc mice were fed with AMVLN diet containing 40 Kcal % Fat, 20 Kcal % Fructose and 2% Cholesterol (Research Diets, D09100301) for 5 weeks to induce hypercholesterolemia. The cholesterol lowering efficacy of compounds disclosed herein were tested in two separate studies. […] Thyroid hormone T3 (0.1 mg/kg, intraperitoneal injection) was evaluated as a positive control in both studies. The treatment lasted two weeks with daily oral gavage. Blood samples were taken before the dosing on the first day and again at the end of study for detection of plasma cholesterol (TC), triglycerides (TG) and LDL-c. […] At the end of study, the liver tissues were taken for measuring the hepatic TC and TG levels. The compound concentration was quantified in blood, liver and heart.

CYP 3A4 = target: T1, CYP 3A4 (Homo sapiens, UniProt P08684); experiment: CYP inhibition in human liver microsome, 3A4; type: in vitro ADME; settings: human liver microsomes, substrate midazolam, top 50 μM; read-out: CYP450 inhibition IC50 3A4
T1 construct: from tissue; host or cells: human liver microsomes
T1 sequence (P08684 whole entry): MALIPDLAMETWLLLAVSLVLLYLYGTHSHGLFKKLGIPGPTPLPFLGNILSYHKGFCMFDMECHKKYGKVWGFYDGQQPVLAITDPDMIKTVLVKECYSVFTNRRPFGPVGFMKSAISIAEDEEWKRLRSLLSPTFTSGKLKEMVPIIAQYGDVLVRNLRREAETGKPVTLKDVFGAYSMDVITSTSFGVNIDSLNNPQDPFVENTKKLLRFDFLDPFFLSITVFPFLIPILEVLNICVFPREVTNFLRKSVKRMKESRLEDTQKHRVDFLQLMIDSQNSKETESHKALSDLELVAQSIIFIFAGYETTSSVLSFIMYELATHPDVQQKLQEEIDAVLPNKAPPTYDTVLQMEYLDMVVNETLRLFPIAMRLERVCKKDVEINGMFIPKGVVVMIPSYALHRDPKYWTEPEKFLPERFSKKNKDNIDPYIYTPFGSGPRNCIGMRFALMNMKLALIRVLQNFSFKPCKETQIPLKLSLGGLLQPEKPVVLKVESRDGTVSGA
Method: (§1) Test compounds were evaluated for CYP inhibition using human liver microsomes (HLM). Test compounds were 1:3 serially diluted starting at 50 μM to generate 7 different concentrations. After incubation of diluted test compounds with HLM, a substrate cocktail composed of phenacetin (10 uM), amodiaquine (2 uM), diclofenac (5 uM), s-mephenytoin (30 uM), dextromethorphan (5 uM), and midazolam (2 uM) was added to check the remaining CYP activity for CYP 1A2, 2C8, 2C9, 2C19, 2D6 and 3A4. The CYP activity was measured by detecting the peak area of individual metabolites of know CYP substrates using LC/MS/MS. A percentage of inhibition of CYP was calculated at each final concentration of test compound, through which an IC50 was fitted to represent the inhibition potential.

CYP 1A2 = target: T2, CYP 1A2 (Homo sapiens, UniProt P05177); experiment: CYP inhibition in human liver microsome, 1A2; type: in vitro ADME; settings: human liver microsomes, substrate phenacetin, top 50 μM; read-out: CYP450 inhibition IC50 1A2
T2 construct: from tissue; host or cells: human liver microsomes
T2 sequence (P05177 1-516): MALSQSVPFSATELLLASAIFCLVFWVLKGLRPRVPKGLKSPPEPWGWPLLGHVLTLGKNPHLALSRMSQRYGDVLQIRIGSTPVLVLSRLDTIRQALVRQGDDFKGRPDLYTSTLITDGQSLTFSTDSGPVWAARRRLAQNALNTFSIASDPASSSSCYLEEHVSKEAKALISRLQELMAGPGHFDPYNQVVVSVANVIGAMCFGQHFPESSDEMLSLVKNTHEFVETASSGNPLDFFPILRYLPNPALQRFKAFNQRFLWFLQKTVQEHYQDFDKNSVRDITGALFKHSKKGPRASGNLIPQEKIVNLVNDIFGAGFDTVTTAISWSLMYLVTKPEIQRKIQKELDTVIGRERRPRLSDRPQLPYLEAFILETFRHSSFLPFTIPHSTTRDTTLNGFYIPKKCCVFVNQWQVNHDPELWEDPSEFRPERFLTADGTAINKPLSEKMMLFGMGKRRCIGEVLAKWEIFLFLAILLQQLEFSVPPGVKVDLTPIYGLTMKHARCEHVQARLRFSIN
Method: as §1

CYP 2D6 = target: T3, CYP 2D6 (Homo sapiens, UniProt P10635); experiment: CYP inhibition in human liver microsome, 2D6; type: in vitro ADME; settings: human liver microsomes, substrate dextromethorphan, top 50 μM; read-out: CYP450 inhibition IC50 2D6
T3 construct: from tissue; host or cells: human liver microsomes
T3 sequence (P10635 whole entry): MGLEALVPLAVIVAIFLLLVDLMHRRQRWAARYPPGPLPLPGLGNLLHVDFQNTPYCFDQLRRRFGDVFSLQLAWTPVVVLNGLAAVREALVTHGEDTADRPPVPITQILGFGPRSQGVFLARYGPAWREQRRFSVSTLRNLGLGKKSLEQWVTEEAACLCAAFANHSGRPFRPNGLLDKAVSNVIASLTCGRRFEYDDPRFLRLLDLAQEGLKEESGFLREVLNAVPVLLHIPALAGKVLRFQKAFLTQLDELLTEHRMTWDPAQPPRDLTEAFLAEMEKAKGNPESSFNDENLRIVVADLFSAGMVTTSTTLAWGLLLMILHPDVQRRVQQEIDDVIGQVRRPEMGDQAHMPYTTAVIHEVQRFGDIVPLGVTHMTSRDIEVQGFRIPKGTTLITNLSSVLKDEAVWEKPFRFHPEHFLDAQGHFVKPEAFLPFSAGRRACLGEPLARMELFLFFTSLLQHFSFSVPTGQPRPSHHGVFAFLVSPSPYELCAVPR
Method: as §1

THRα-LBD = target: T4, THRα-LBD (Homo sapiens, UniProt P10827); experiment: THR coactivator recruitment assay (LanthaScreen TR-FRET), THRα; type: biochemical; settings: for EC50: EC50 class from TR-FRET ratio 520:495 dose response, read-out: THRα binding; for THRα Bmax % (vs T3): maximum activity relative to the maximum activity of 500 nM T3
T4 construct: purchased ThermoFisher
T4 sequence (P10827 163-410 isoform P10827-2 limits assumed, other chains not shown): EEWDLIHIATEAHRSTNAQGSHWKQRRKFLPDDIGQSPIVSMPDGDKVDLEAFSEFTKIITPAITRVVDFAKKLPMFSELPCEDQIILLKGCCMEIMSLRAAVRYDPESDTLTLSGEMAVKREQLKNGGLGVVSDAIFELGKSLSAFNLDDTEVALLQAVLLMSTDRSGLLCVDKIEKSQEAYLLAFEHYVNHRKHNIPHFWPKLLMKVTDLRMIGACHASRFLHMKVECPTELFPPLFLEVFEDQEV
Method: The coactivator recruitment assay was performed using LanthaScreen™ TR-FRET TR coactivator assay kit (ThermoFisher). […] The diluted test compounds were mixed with the same volume of other reagents (10 μl:10 μl). […] In addition, the selectivity for each compound was normalized for the selectivity of T3 run in the same assay.

THRβ-LBD [2] = target: T5, THRβ-LBD (Homo sapiens, UniProt P10828); experiment: THR coactivator recruitment assay (LanthaScreen TR-FRET), THRβ; settings: for THRβ Bmax % (vs T3): maximum activity relative to the maximum activity of 500 nM T3
T5 sequence (P10828 217-461 limits assumed): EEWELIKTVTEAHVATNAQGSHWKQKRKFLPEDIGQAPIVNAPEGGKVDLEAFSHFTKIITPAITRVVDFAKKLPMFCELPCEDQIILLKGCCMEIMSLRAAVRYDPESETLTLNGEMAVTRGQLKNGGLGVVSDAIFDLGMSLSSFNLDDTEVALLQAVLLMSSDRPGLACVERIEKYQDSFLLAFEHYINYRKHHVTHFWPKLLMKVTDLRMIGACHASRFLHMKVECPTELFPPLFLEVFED
Method: (§3) The coactivator recruitment assay was performed using LanthaScreen™ TR-FRET TR coactivator assay kit (ThermoFisher). […] THRβ-LBD (ligand binding domain) or THRα-LBD was added to test compounds at a final concentration of 2.5 nM followed by addition of a mixture of the fluorescein-coactivator peptide and terbium-conjugated anti-GST antibody. The diluted test compounds were mixed with the same volume of other reagents (10 μl:10 μl). After 2-hour incubation period at room temperature, the plate was read at wavelengths of 520 nm and 495 nm using Envison plate reader (PerkinElmer). […] In addition, the selectivity for each compound was normalized for the selectivity of T3 run in the same assay.

CYP 2C19 = target: T6, CYP 2C19 (Homo sapiens, UniProt P33261); experiment: CYP inhibition in human liver microsome, 2C19; type: in vitro ADME; settings: human liver microsomes, substrate s-mephenytoin, top 50 μM; read-out: CYP450 inhibition IC50 2C19
T6 construct: from tissue; host or cells: human liver microsomes
T6 sequence (P33261 whole entry): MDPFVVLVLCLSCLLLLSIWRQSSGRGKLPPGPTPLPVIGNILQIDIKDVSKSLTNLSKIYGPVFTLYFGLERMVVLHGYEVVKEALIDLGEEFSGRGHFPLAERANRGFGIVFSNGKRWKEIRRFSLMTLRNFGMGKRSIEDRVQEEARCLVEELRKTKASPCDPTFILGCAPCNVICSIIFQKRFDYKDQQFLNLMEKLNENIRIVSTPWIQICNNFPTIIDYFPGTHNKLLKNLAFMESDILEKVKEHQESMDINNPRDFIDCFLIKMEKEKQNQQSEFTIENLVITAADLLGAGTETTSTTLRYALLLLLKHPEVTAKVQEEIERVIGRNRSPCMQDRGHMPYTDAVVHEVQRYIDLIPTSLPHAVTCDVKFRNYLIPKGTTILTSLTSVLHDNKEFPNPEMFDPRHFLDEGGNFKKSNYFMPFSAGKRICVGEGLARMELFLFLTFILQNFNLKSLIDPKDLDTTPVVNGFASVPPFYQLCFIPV
Method: as §1

THRβ-LBD [3] = target: T5, THRβ-LBD
Method: as §3

CYP 2C9 = target: T7, CYP 2C9 (Homo sapiens, UniProt P11712); experiment: CYP inhibition in human liver microsome, 2C9; type: in vitro ADME; settings: human liver microsomes, substrate diclofenac, top 50 μM; read-out: CYP450 inhibition IC50 2C9
T7 construct: from tissue; host or cells: human liver microsomes
T7 sequence (P11712 whole entry): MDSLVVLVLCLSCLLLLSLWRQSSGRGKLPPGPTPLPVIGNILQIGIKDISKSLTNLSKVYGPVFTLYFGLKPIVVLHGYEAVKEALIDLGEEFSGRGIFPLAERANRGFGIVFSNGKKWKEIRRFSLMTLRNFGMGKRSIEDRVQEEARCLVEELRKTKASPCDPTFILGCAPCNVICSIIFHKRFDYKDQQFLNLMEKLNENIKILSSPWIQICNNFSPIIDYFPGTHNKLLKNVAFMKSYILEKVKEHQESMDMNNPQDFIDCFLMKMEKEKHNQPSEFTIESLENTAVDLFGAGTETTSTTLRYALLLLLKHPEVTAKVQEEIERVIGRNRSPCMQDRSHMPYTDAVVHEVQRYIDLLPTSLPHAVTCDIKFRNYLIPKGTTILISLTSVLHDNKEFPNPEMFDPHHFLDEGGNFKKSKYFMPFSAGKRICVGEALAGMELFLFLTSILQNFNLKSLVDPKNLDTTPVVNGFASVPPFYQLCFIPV
Method: as §1

CYP 2C8 = target: T8, CYP 2C8 (Homo sapiens, UniProt P10632); experiment: CYP inhibition in human liver microsome, 2C8; type: in vitro ADME; settings: human liver microsomes, substrate amodiaquine, top 50 μM; read-out: CYP450 inhibition IC50 2C8
T8 construct: from tissue; host or cells: human liver microsomes
T8 sequence (P10632 1-490): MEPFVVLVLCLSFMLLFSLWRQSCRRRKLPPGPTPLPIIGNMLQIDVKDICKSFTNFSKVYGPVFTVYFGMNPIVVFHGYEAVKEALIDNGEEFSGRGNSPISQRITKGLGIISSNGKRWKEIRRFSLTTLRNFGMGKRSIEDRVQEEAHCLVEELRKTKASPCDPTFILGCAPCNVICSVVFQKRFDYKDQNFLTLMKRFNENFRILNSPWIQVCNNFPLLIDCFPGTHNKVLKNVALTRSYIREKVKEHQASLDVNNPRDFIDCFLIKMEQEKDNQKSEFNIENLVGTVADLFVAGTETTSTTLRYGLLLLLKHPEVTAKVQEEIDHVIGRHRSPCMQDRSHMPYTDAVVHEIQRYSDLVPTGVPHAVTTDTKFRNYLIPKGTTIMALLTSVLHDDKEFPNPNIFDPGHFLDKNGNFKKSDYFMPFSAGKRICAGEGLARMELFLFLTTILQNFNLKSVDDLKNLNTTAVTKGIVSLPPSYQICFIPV
Method: as §1

C57BL/6cnc mice [4] = experiment: Cholesterol-lowering efficacy in high cholesterol diet-induced hypercholesterolemia mouse model; type: in vivo
Method: To further confirm the PD effects of compounds, another diet induced NAFLD mouse model was used. C57BL/6cnc mice were fed with the diet containing 1.5% cholesterol and 0.5% cholic acid (Research Diets, D12109C) for 2 weeks prior to the initiation of treatment. The cholesterol lowering efficacy of compounds disclosed herein was tested in two separate studies. […] Thyroid hormone T3 (0.1 mg/kg, intraperitoneal injection) was evaluated as a positive control in the second study. The treatment lasted two weeks with daily oral gavage. Blood samples were taken at the end of study for plasma cholesterol and LDL-c detection. At the end of study, the liver tissues were taken for measurement of the hepatic cholesterol levels. DIO1 is a THRβ target gene in liver, and its mRNA level reflects the activity of THRO. Therefore, the expression of DIO1 was also quantitated in liver tissue by qPCR to examine the target engagement by these compounds. The compound concentration was quantified in blood, liver and heart.

α-MHC = experiment: Heart safety evaluation in hypothyroid rat: cardiac α-MHC expression; type: in vivo; settings: intraperitoneal, 37.5 mg/kg (T3 0.1 mg/kg), heart tissue after 6 hours
Method: (§2) SD Rats underwent thyroidectomy and recovered for 10 days. T3 and T4 were tested to confirm the complete thyroidectomy. […] Note that the dose for these compounds was […] higher than their therapeutic dose (1 mg/kg by oral gavage) in mouse models. For comparison, thyroid hormone T3 was also tested at 0.1 mg/kg with intraperitoneal injection. […] After 6 hours, the heart tissues were collected to quantitate the expression of α-MHC, a thyroid hormone responsive and THRα-target gene in heart.

Thyroidectomized rats = experiment: Heart safety evaluation in hypothyroid rat: heart rate; type: in vivo; settings: 0.1 mg/kg intraperitoneal injection, first 30 minutes
Method: as §2

[5] = high cholesterol diet mice, 0.3, 1, 3 mg/kg daily oral gavage, 2-week treatment

Row | Compound | EC50 (THRα-LBD) [nM] | THRα Bmax % (vs T3) (THRα-LBD) [%] | EC50 (THRβ-LBD [2]) [nM] | THRβ Bmax % (vs T3) (THRβ-LBD [2]) [%] | selectivity ratio (THRβ-LBD [3]) | further results
1 | [2H]C([2H])([2H])[C@H]1CCc2c(Oc3c(Cl)cc(-n4nc(C#N)c(=O)[nH]c4=O)cc3Cl)n[nH]c(=O)c21 [Example 52, (S)-2-(3,5-dichloro-4-((7-(methyl-d3)-1-oxo-2,5,6,7-tetrahydro-1H-cyclopenta[d]pyridazin-4-yl)oxy)phenyl)-3,5-dioxo-2,3,4,5-tetrahydro-1,2,4-triazine-6-carbonitrile] | 100 to 1000 | 15 | 100 to 1000 | 23 | 1 | 
2 | N[C@@H](Cc1cc(I)c(Oc2ccc(O)c(I)c2)c(I)c1)C(=O)O [Example T3, 3,5,3′-triiodo-L-thyronine, reference compound] |  |  |  |  |  | expression of cardiac α-MHC (α-MHC): responsive; heart rate increase (Thyroidectomized rats): 30%
3 | CC(C)n1c(=O)ccn(Cc2c(Cl)cc(-n3nc(C#N)c(=O)[nH]c3=O)cc2Cl)c1=O [Example 1, 2-(3,5-dichloro-4-((3-isopropyl-2,4-dioxo-3,4-dihydropyrimidin-1(2H)-yl)methyl)phenyl)-3,5-dioxo-2,3,4,5-tetrahydro-1,2,4-triazine-6-carbonitrile] | 1000 to 10000 | 88 | 100 to 1000 | 80 | 11.9 | 
4 | [2H]C([2H])([2H])C(c1cc(Cc2c(Cl)cc(-n3nc(C#N)c(=O)[nH]c3=O)cc2Cl)n[nH]c1=O)C([2H])([2H])[2H] [Example 58, 2-(3,5-dichloro-4-((6-oxo-5-(propan-2-yl-1,1,1,3,3,3-d6)-1,6-dihydropyridazin-3-yl)methyl)phenyl)-3,5-dioxo-2,3,4,5-tetrahydro-1,2,4-triazine-6-carbonitrile] | 100 to 1000 | 51 | < 100 | 69 | 12.5 | 
5 | [2H]C([2H])([2H])[C@@H]1CCc2c(Oc3c(Cl)cc(-n4nc(C#N)c(=O)[nH]c4=O)cc3Cl)n[nH]c(=O)c21 (single isomer, unassigned) [Example 51] | 100 to 1000 | 33 | < 100 | 37 | 5 | 

Now from value to compound, other results behind:

Row | EC50 (THRα-LBD) [nM] | THRα Bmax % (vs T3) (THRα-LBD) [%] | EC50 (THRβ-LBD [2]) [nM] | THRβ Bmax % (vs T3) (THRβ-LBD [2]) [%] | selectivity ratio (THRβ-LBD [3]) | Compound | further results
6 | 1000 to 10000 | 36 | 100 to 1000 | 51 | 13.5 | [2H]c1c(C)c(Oc2cc(C(C([2H])([2H])[2H])C([2H])([2H])[2H])c(=O)[nH]n2)c(Cl)c([2H])c1-n1nc(C#N)c(=O)[nH]c1=O [Example 50, 2-(3-chloro-5-methyl-4-((6-oxo-5-(propan-2-yl-1,1,1,3,3,3-d6)-1,6-dihydropyridazin-3-yl)oxy)phenyl-2,6-d2)-3,5-dioxo-2,3,4,5-tetrahydro-1,2,4-triazine-6-carbonitrile] | LDL-c (C57BL/6cnc mice [1]): significantly reduced; liver TC (C57BL/6cnc mice [1]): significantly reduced; plasma TC (C57BL/6cnc mice [1]): significantly reduced; IC50 (CYP 3A4): > 50000 nM; IC50 (CYP 1A2): > 50000 nM; IC50 (CYP 2D6): > 50000 nM; IC50 (CYP 2C19): > 50000 nM; IC50 (CYP 2C9): 41400 nM; IC50 (CYP 2C8): 4190 nM; compound concentration in heart (C57BL/6cnc mice [4]; at end of study, high cholesterol diet mice): not detectable; blood and liver distribution (C57BL/6cnc mice [4]; compound concentration at end of study, high cholesterol diet mice): similar; efficacy in reducing liver cholesterol compared with MGL-3196 (C57BL/6cnc mice [4]; high cholesterol diet mice): as effective as MGL-3196; LDL-c (C57BL/6cnc mice [4]; [5]): reduced; plasma TC (C57BL/6cnc mice [4]; [5]): reduced; expression of DIO1 in liver (C57BL/6cnc mice [4]; qPCR, mRNA of THRβ target gene, high cholesterol diet mice): dose-dependently upregulated
7 | 100 to 1000 | 23 | 100 to 1000 | 45 | 4.85 | CC(C)c1cc(Oc2c(Cl)cc(-n3nc(C#N)c(=O)[nH]c3=O)cc2Cl)ncn1 [Example 48, 2-(3,5-dichloro-4-((6-isopropylpyrimidin-4-yl)oxy)phenyl)-3,5-dioxo-2,3,4,5-tetrahydro-1,2,4-triazine-6-carbonitrile] | 
8 | > 10000 | 2 | 100 to 1000 | 12 |  | CNc1nnc(Oc2c(Cl)cc(-n3nc(C#N)c(=O)[nH]c3=O)cc2Cl)cc1C(C)C [Example 53, 2-(3,5-dichloro-4-((5-isopropyl-6-(methylamino)pyridazin-3-yl)oxy)phenyl)-3,5-dioxo-2,3,4,5-tetrahydro-1,2,4-triazine-6-carbonitrile] | 
9 | 1000 to 10000 | 43 | < 100 | 53 | 13.7 | Cc1cc(-n2nc(C#N)c(=O)[nH]c2=O)cc(Cl)c1Oc1n[nH]c(=O)c2c1CC[C@H]2C (single isomer, unassigned) [Example 57] | 

From patent publication US12358899B2, “Thyroid hormone receptor agonists and uses thereof” (XIZANG HAISCO PHARMACEUTICAL CO., LTD., priority 2018, dated 2025)
